Measured values: patent US20100035926A1, “PYRAZOLE DERIVATIVES AS NON-STEROIDAL GLUCOCORTICOID RECEPTOR LIGANDS” (priority 2006, published 2010)
Where two headings read alike, the source gives them in different places.

Columns and labels:
[1] = Assay for Brain Penetrance; format: in vivo; settings: brain and plasma, rat, single intravenous dose 1 mg/kg, read-out: brain to plasma ratio
Experimental: Each rat received a single intravenous dose at a level of 1 mg/kg. The dose was formulated in 10% DMSO/50% PEG200/40% sterile water. Terminal blood samples were taken at 5 or 15 mins after dosing, by cardiac puncture following anaesthesia with isofluorane. The brains were removed at the same time point.
The compounds were extracted from 20 μL plasma by protein precipitation using 120 μL acetonitrile containing an analogue compound as an internal standard. The filtered extracts were collected into a 96 well plate and were diluted with an equal volume of 10% acetonitrile containing 0.1% formic acid in water (v/v). The plate was then mixed on a plate shaker for at least 5 mins before analysis by LC-MS/MS against a calibration line prepared in control plasma.
Each brain was weighed, then homogenised in 3 ml acetonitrile:water (10:90v/v). The compounds were extracted from 200 μL of the resulting homogenate by protein precipitation using 600 μL acetonitrile containing an analogue compound as an internal standard. The extracts were centrifuged and 150 μl of each was filtered and transferred to a 96 well plate. The aliquot was diluted with 10% acetonitrile containing 0.1% formic acid in water (v/v). The plate was mixed on a plate shaker for at least 5 mins before analysis by LC-MS/MS against a calibration line prepared in control brain homogenate.

glucocorticoid receptor = biological target: T1, glucocorticoid receptor (Homo sapiens, UniProt P04150); assay: Glucocorticoid Receptor Binding Assay (fluorescence polarisation, displacement of Alexa 555 labelled dexamethasone derivative); settings: at least once in this assay; read-out: glucocorticoid binding pIC50 (converted)
T1 construct: a partially purified full length glucocorticoid receptor
T1 sequence (P04150 1-777): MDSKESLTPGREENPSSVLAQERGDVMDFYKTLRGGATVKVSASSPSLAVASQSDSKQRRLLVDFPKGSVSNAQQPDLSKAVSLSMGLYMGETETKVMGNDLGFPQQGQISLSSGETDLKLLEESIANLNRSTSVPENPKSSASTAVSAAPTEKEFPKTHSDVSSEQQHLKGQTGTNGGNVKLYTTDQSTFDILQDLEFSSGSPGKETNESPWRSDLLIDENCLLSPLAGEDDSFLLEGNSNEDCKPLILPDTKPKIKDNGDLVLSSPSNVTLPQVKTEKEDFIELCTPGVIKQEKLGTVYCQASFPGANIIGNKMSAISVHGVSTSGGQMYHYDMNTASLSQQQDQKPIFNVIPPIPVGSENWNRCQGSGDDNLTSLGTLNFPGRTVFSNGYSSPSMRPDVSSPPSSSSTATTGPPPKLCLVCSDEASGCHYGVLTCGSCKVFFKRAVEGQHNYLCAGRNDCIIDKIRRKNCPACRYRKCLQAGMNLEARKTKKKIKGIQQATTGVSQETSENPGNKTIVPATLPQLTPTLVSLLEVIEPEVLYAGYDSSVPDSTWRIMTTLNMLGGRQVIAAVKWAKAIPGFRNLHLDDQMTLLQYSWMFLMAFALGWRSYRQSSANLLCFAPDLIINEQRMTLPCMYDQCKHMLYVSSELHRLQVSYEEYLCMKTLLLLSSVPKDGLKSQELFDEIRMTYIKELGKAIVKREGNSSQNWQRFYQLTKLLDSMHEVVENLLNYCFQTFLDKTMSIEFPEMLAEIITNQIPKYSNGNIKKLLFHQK
In short: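 Partially purified full-length GR incubated with test compound and fluorescent dexamethasone plus GR-stabilising buffer components, 2 hr at room temperature in the dark. Binding scored as displacement of tracer, read as decrease in fluorescence polarisation.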

GR = biological target: T2, GR (Homo sapiens, UniProt P04150); assay: GR Functional Assay - NFκB Assay (A549 SPAP cells, TNFα stimulated); format: cell-based; settings: for Emax: agonists, read-out: average maximum asymptote in the NFkB assay
T2 construct: endogenous in cells; host or cells: A549 (human lung carcinoma, ECACC No. 86012804), stably transfected with reporter plasmids only
T2 sequence (P04150 1-777): T1 sequence (P04150 1-777)
In short: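 Stably transfected A549 SPAP cells at 0.16×10^6/ml in DMEM with 10% FCS were added to compound and stimulated with TNFα to drive NFκB-dependent SPAP expression. After 1 hr equilibration at room temperature, SPAP was read colorimetrically with pNPP in diethanolamine buffer, pH 9.8.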

[2] = at least once in the NFkB assay, A549 SPAP cells, read-out: pIC50 in the NFkB assay (converted)
[3] = at least once, examples listed as agonists in NFkB and MMTV assays, read-out: potency pIC50 in the NFKB assay (converted)

Kp at 5 min [1] | IC50 (glucocorticoid receptor) [nM] | Emax (GR; A549 SPAP cells) [%] | IC50 (GR; [2]) [nM] | IC50 (GR; [3]) [nM] | SMILES
≥ 0.1 | < 1000 | ≥ 40 | < 1000 | < 316 | Nc1c(C(=O)NCC(O)(CN(CCF)C(=O)c2ccccc2)C(F)(F)F)cnn1-c1ccc(F)cc1 (racemic) [Example 1 (racemic), 5-Amino-1-(4-fluorophenyl)-N-(3,3,3-trifluoro-2-{[(2-fluoroethyl)(phenylcarbonyl)amino]methyl}-2-hydroxypropyl)-1H-pyrazole-4-carboxamide]
≥ 0.1 | < 1000 | ≥ 40 | < 1000 | < 316 | Nc1c(C(=O)NCC(O)(CN(CCF)C(=O)c2ccccc2F)C(F)(F)F)cnn1-c1ccc(F)cc1 (racemic) [Example 2 (racemic), 5-Amino-1-(4-fluorophenyl)-N-[3,3,3-trifluoro-2-([(2-fluoroethyl)[(2-fluorophenyl)carbonyl]amino]methyl)-2-hydroxypropyl]-1H-pyrazole-4-carboxamide]
≥ 0.1 | < 1000 | ≥ 40 | < 1000 | < 316 | CCN(CC(O)(CNC(=O)c1cnn(-c2ccc(F)cc2)c1N)C(F)(F)F)C(=O)c1cccc(F)c1F (racemic) [Example 5 (racemic), 5-Amino-N-(2-{[[(2,3-difluorophenyl)carbonyl](ethyl)amino]methyl}-3,3,3-trifluoro-2-hydroxypropyl)-1-(4-fluorophenyl)-1H-pyrazole-4-carboxamide]
